# According to PubChem BioAssay (NCI):
#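 Test compounds were applied to cells in 96-well plates for 48 hours at 5 doses. GI50 = concentration required for 50% inhibition of growth. TGI: total growth inhibition.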
# Columns and labels:
# Test in all cases: growth of human tumour cells (NCI), 48 h
# 786-0 renal = tested on: 786-0 renal
# A498 renal = tested on: A498 renal
# A549 NSCLC = tested on: A549 NSCLC
# ACHN renal = tested on: ACHN renal
# BT-549 breast = tested on: BT-549 breast
# CAKI-1 renal = tested on: CAKI-1 renal
# CCRF-CEM leukemia = tested on: CCRF-CEM leukemia
# COLO 205 colon = tested on: COLO 205 colon
# DU-145 prostate = tested on: DU-145 prostate
# EKVX NSCLC = tested on: EKVX NSCLC
# HCC-2998 colon = tested on: HCC-2998 colon
# HCT-116 colon = tested on: HCT-116 colon
# HCT-15 colon = tested on: HCT-15 colon
# HL-60(TB) leukemia = tested on: HL-60(TB) leukemia
# HOP-62 NSCLC = tested on: HOP-62 NSCLC
# HOP-92 NSCLC = tested on: HOP-92 NSCLC
# HS 578T breast = tested on: HS 578T breast
# HT29 colon = tested on: HT29 colon
# IGROV1 ovarian = tested on: IGROV1 ovarian
# K-562 leukemia = tested on: K-562 leukemia
# KM12 colon = tested on: KM12 colon
# LOX IMVI melanoma = tested on: LOX IMVI melanoma
# M14 melanoma = tested on: M14 melanoma
# MALME-3M melanoma = tested on: MALME-3M melanoma
# MCF7 breast = tested on: MCF7 breast
# MDA-MB-231 breast = tested on: MDA-MB-231 breast
# MDA-MB-435 = tested on: MDA-MB-435
# MOLT-4 leukemia = tested on: MOLT-4 leukemia
# NCI-H226 lung = tested on: NCI-H226 lung
# NCI-H23 lung = tested on: NCI-H23 lung
# NCI-H460 lung = tested on: NCI-H460 lung
# NCI-H522 lung = tested on: NCI-H522 lung
# NCI/ADR-RES ovarian = tested on: NCI/ADR-RES ovarian
# OVCAR-3 ovarian = tested on: OVCAR-3 ovarian
# OVCAR-4 ovarian = tested on: OVCAR-4 ovarian
# OVCAR-5 ovarian = tested on: OVCAR-5 ovarian
# OVCAR-8 ovarian = tested on: OVCAR-8 ovarian
# PC-3 prostate = tested on: PC-3 prostate
# RPMI-8226 leukemia = tested on: RPMI-8226 leukemia
# RXF 393 renal = tested on: RXF 393 renal
# SF-268 CNS = tested on: SF-268 CNS
# SF-295 CNS = tested on: SF-295 CNS
# SF-539 CNS = tested on: SF-539 CNS
# SK-MEL-2 melanoma = tested on: SK-MEL-2 melanoma
# SK-MEL-28 melanoma = tested on: SK-MEL-28 melanoma
# SK-MEL-5 melanoma = tested on: SK-MEL-5 melanoma
# SK-OV-3 ovarian = tested on: SK-OV-3 ovarian
# SN12C renal = tested on: SN12C renal
# SNB-19 CNS = tested on: SNB-19 CNS
# SNB-75 CNS = tested on: SNB-75 CNS
# SR leukemia = tested on: SR leukemia
# SW-620 colon = tested on: SW-620 colon
# T-47D breast = tested on: T-47D breast
# TK-10 renal = tested on: TK-10 renal
# U251 CNS = tested on: U251 CNS
# UACC-257 melanoma = tested on: UACC-257 melanoma
# UACC-62 melanoma = tested on: UACC-62 melanoma
# UO-31 renal = tested on: UO-31 renal
compound,measurement,setting,value
CN1CCN(Cc2ccc(NC(=O)c3cncc(C#Cc4cnc5ccc(Cl)nn45)c3)cc2C(F)(F)F)CC1,GI50,786-0 renal,1010 nM
same,TGI,786-0 renal,1850 nM
same,GI50,A498 renal,1120 nM
same,TGI,A498 renal,2600 nM
same,GI50,A549 NSCLC,1280 nM
same,TGI,A549 NSCLC,4290 nM
same,GI50,ACHN renal,769 nM
same,TGI,ACHN renal,2940 nM
same,GI50,BT-549 breast,1450 nM
same,TGI,BT-549 breast,3850 nM
same,GI50,CAKI-1 renal,1000 nM
same,TGI,CAKI-1 renal,4630 nM
same,GI50,CCRF-CEM leukemia,1290 nM
same,TGI,CCRF-CEM leukemia,4840 nM
same,GI50,COLO 205 colon,688 nM
same,TGI,COLO 205 colon,2080 nM
same,GI50,DU-145 prostate,1180 nM
same,TGI,DU-145 prostate,4380 nM
same,GI50,EKVX NSCLC,910 nM
same,TGI,EKVX NSCLC,2340 nM
same,GI50,HCC-2998 colon,949 nM
same,TGI,HCC-2998 colon,2660 nM
same,GI50,HCT-116 colon,259 nM
same,TGI,HCT-116 colon,1340 nM
same,GI50,HCT-15 colon,901 nM
same,TGI,HCT-15 colon,3360 nM
same,GI50,HL-60(TB) leukemia,318 nM
same,TGI,HL-60(TB) leukemia,1470 nM
same,GI50,HOP-62 NSCLC,1270 nM
same,TGI,HOP-62 NSCLC,3730 nM
same,GI50,HOP-92 NSCLC,454 nM
same,TGI,HOP-92 NSCLC,3630 nM
same,GI50,HS 578T breast,886 nM
same,TGI,HS 578T breast,3290 nM
same,GI50,HT29 colon,747 nM
same,TGI,HT29 colon,5710 nM
same,GI50,IGROV1 ovarian,889 nM
same,TGI,IGROV1 ovarian,3540 nM
same,GI50,K-562 leukemia,5 nM
same,TGI,K-562 leukemia,2960 nM
same,GI50,KM12 colon,5 nM
same,TGI,KM12 colon,2130 nM
same,GI50,LOX IMVI melanoma,757 nM
same,TGI,LOX IMVI melanoma,1600 nM
same,GI50,M14 melanoma,590 nM
same,TGI,M14 melanoma,1340 nM
same,GI50,MALME-3M melanoma,495 nM
same,TGI,MALME-3M melanoma,1230 nM
same,GI50,MCF7 breast,287 nM
same,TGI,MCF7 breast,1920 nM
same,GI50,MDA-MB-231 breast,567 nM
same,TGI,MDA-MB-231 breast,2300 nM
same,GI50,MDA-MB-435,736 nM
same,TGI,MDA-MB-435,2090 nM
same,GI50,MOLT-4 leukemia,682 nM
same,TGI,MOLT-4 leukemia,3890 nM
same,GI50,NCI-H226 lung,507 nM
same,TGI,NCI-H226 lung,2700 nM
same,GI50,NCI-H23 lung,751 nM
same,TGI,NCI-H23 lung,2180 nM
same,GI50,NCI-H460 lung,871 nM
same,TGI,NCI-H460 lung,2060 nM
same,GI50,NCI-H522 lung,878 nM
same,TGI,NCI-H522 lung,2780 nM
same,GI50,NCI/ADR-RES ovarian,1590 nM
same,TGI,NCI/ADR-RES ovarian,5240 nM
same,GI50,OVCAR-3 ovarian,1580 nM
same,TGI,OVCAR-3 ovarian,4000 nM
same,GI50,OVCAR-4 ovarian,453 nM
same,TGI,OVCAR-4 ovarian,3660 nM
same,GI50,OVCAR-5 ovarian,830 nM
same,TGI,OVCAR-5 ovarian,3550 nM
same,GI50,OVCAR-8 ovarian,1460 nM
same,TGI,OVCAR-8 ovarian,5270 nM
same,GI50,PC-3 prostate,1200 nM
same,TGI,PC-3 prostate,5240 nM
same,GI50,RPMI-8226 leukemia,954 nM
same,TGI,RPMI-8226 leukemia,2690 nM
same,GI50,RXF 393 renal,828 nM
same,TGI,RXF 393 renal,1770 nM
same,GI50,SF-268 CNS,1250 nM
same,TGI,SF-268 CNS,2830 nM
same,GI50,SF-295 CNS,1380 nM
same,TGI,SF-295 CNS,5320 nM
same,GI50,SF-539 CNS,540 nM
same,TGI,SF-539 CNS,1210 nM
same,GI50,SK-MEL-2 melanoma,744 nM
same,TGI,SK-MEL-2 melanoma,1980 nM
same,GI50,SK-MEL-28 melanoma,918 nM
same,TGI,SK-MEL-28 melanoma,2590 nM
same,GI50,SK-MEL-5 melanoma,849 nM
same,TGI,SK-MEL-5 melanoma,1590 nM
same,GI50,SK-OV-3 ovarian,1750 nM
same,TGI,SK-OV-3 ovarian,4960 nM
same,GI50,SN12C renal,969 nM
same,TGI,SN12C renal,3480 nM
same,GI50,SNB-19 CNS,1780 nM
same,TGI,SNB-19 CNS,4890 nM
same,GI50,SNB-75 CNS,972 nM
same,TGI,SNB-75 CNS,2100 nM
same,GI50,SR leukemia,975 nM
same,TGI,SR leukemia,6100 nM
same,GI50,SW-620 colon,631 nM
same,TGI,SW-620 colon,3660 nM
same,GI50,T-47D breast,1410 nM
same,TGI,T-47D breast,6580 nM
same,GI50,TK-10 renal,1640 nM
same,TGI,TK-10 renal,4460 nM
same,GI50,U251 CNS,1220 nM
same,TGI,U251 CNS,4340 nM
same,GI50,UACC-257 melanoma,1210 nM
same,TGI,UACC-257 melanoma,4130 nM
same,GI50,UACC-62 melanoma,925 nM
same,TGI,UACC-62 melanoma,2400 nM
same,GI50,UO-31 renal,1280 nM
same,TGI,UO-31 renal,3360 nM
